The source of these data is patent US9447093B2, “3,5-diarylazaindoles as DYRK1A protein inhibitors for the treatment of cognitive deficiencies associated with Down's syndrome and with Alzheimer's disease” (Centre National De La Recherche Scientifique, priority 2012, dated 2016).

pIC50: −log10 of the molar value.

The target of one assay is T1, DYRK1A protein (Homo sapiens, UniProt Q13627).
T1 construct: the peptide phosphorylated by His-DYRK1A-ΔC is separated from the unphosphorylated peptide; His (N)
As to the kind of experiment: DYRK1A activity assay (fluorescein peptide substrate, UFLC with fluorescence detection). The class given is biochemical. Conditions: for pIC50: DYRK1A protein, ΔDYRK1A enzyme, 37° C.

A further assay concerns GSKIII beta protein. The assay is described as follows: In vivo phosphorylation state of GSKIII beta in brain (slot-blot). Conditions: brain of TG animals (trisomy model for DYRK1A gene), intraperitoneal 1 mg/kg at t0 and t16 h, sacrifice t17-t18. On the procedure: (§1) To test in vivo the efficacy of these inhibitors, the effect of the compounds according to the invention on the phosphorylation state of two DYRK1A downstream targets in signaling pathways was measured: GSKIII beta protein (FIG. 1a) and CAMKII protein (FIG. 1b).
(§2) These measurements were carried out in the brain of control animals (WT) and of animals of an animal model of trisomy for DYRK1A gene (TG).
(§3) To that end, the compounds were administered by intraperitoneal injection in the amount of 1 mg/kg at t0 then at t16 (hours) and the animals were sacrificed at t17-t18. Brain proteins were then extracted and the amounts of GSKIIIbeta, pGSKIIIbeta, CAMKII and pCAMKII proteins were measured by a slot-blot technique with suitable antibodies.
(§4) The results of these tests are presented in FIG. 1: the y-axis represents the ratio of phosphorylated protein to unphosphorylated protein measured on the untreated animals (WT and TG) and on the animals treated with the compounds according to the invention.

The next assay concerns CAMKII protein. The assay is described as follows: In vivo phosphorylation state of CAMKII in brain (slot-blot). Conditions: brain of TG animals (trisomy model for DYRK1A gene), intraperitoneal 1 mg/kg at t0 and t16 h, sacrifice t17-t18. On the procedure: as §1, §2, §3, §4

One may read the pIC50 as −log10 of the IC50, conventionally taken in molar units. High values mean a low IC50, low ones a high IC50. At DYRK1A protein, `c1ccc(-c2cnc3[nH]cc(-c4ccccc4)c3c2)cc1` [B, 3-phenyl-5-phenyl-1H-pyrrolo[2,3-b]pyridine] gave a negative-log IC50 (pIC50) of 5.13.
Molecule `Oc1ccc(-c2cnc3[nH]cc(-c4ccccc4)c3c2)cc1O` [E, 3-phenyl-5-(3,4-dihydroxyphenyl)-1H-pyrrolo[2,3-b]pyridine] showed a pIC50 at DYRK1A protein of 6.80.
In turn, `Oc1ccccc1-c1cnc2[nH]cc(-c3ccccc3)c2c1` [Compound A, 3-phenyl-5-(2-hydroxyphenyl)-1H-pyrrolo[2,3-b]pyridine] gave a pIC50 against DYRK1A protein of 5.44.
At DYRK1A protein, `Oc1ccc(-c2cnc3[nH]cc(-c4ccccc4)c3c2)cc1` [C, 3-phenyl-5-(4-hydroxyphenyl)-1H-pyrrolo[2,3-b]pyridine] showed a pIC50 of 6.49. The “correction of hyperphosphorylated GSKIIIbeta (pGSK/GSK ratio)” value (“correction … (pGSK/GSK ratio)” below) in the assay with GSKIII beta protein is “excessive correction”. In addition, the “correction of hypophosphorylated CAMKII (pCAMKII/CAMKII ratio)” value (“correction … (pCAMKII/CAMKII ratio)” below) in the assay on CAMKII protein is recorded as “do not produce a sufficient correction”.
As to `Oc1ccc(-c2c[nH]c3ncc(-c4ccc(O)c(O)c4)cc23)cc1` [I′b, 3-(4-hydroxyphenyl)-5-(3,4-dihydroxyphenyl)-1H-pyrrolo[2,3-b]pyridine], the pIC50 against DYRK1A protein was 8.52.
In the case of “epigallocatechin-3-gallate [reference compound]”, on DYRK1A protein (validation of the test, compared with literature radioactive kinase tests), the “IC50 values for known DYRK1A inhibitors” value was “Values similar to those of the literature”.
On to `Oc1ccc(-c2cnc3[nH]cc(-c4ccccc4)c3c2)c(O)c1` [F, 3-phenyl-5-(2,4-dihydroxyphenyl)-1H-pyrrolo[2,3-b]pyridine], for which, on DYRK1A protein, the pIC50 is 6.81.
`Oc1ccc(-c2cnc3[nH]cc(-c4ccc(O)c(O)c4)c3c2)cc1O` [I′c, 3-(3,4-dihydroxyphenyl)-5-(3,4-dihydroxyphenyl)-1H-pyrrolo[2,3-b]pyridine]: at DYRK1A protein, the pIC50 was 7.91. For the same molecule, the “correction … (pGSK/GSK ratio)” value in the assay on GSKIII beta protein is “excessive correction”. The “correction … (pCAMKII/CAMKII ratio)” value in the assay with CAMKII protein was “do not produce a sufficient correction”.
At DYRK1A protein, `Oc1cccc(-c2cnc3[nH]cc(-c4cccc(O)c4)c3c2)c1` [Ia, 3-(3-hydroxyphenyl)-5-(3-hydroxyphenyl)-1H-pyrrolo[2,3-b]pyridine] had a pIC50 of 6.98.
With `COc1ccc(-c2c[nH]c3ncc(-c4ccc(O)cc4)cc23)cc1F` [Ic, 3-(3-fluoro-4-methoxyphenyl)-5-(4-hydroxyphenyl)-1H-pyrrolo[2,3-b]pyridine], the pIC50 on DYRK1A protein was 7.38. This pIC50 lies 0.40 log units higher than the previous one.
For the molecule `Oc1ccc(-c2c[nH]c3ncc(-c4ccc(O)cc4O)cc23)cc1` [I′a, 3-(4-hydroxyphenyl)-5-(2,4-dihydroxyphenyl)-1H-pyrrolo[2,3-b]pyridine], the pIC50 at DYRK1A protein was 7.93. In the assay with GSKIII beta protein, the “correction … (pGSK/GSK ratio)” value is reported as “effective correction”. Also, the “correction … (pCAMKII/CAMKII ratio)” value with CAMKII protein is reported as “return the phosphorylation level to the value observed in the control animals”.
For the molecule `Oc1ccc(-c2cnc3[nH]cc(-c4ccc(O)c(O)c4)c3c2)c(O)c1` [I′d, 3-(3,4-dihydroxyphenyl)-5-(2,4-dihydroxyphenyl)-1H-pyrrolo[2,3-b]pyridine], on DYRK1A protein, the pIC50 was 7.84.
With `Oc1ccc(-c2cnc3[nH]cc(-c4ccc(O)cc4)c3c2)cc1` [Ib, 3-(4-hydroxyphenyl)-5-(4-hydroxyphenyl)-1H-pyrrolo[2,3-b]pyridine], on DYRK1A protein, the pIC50 is 7.64. Also, the “correction … (pGSK/GSK ratio)” value in the assay with GSKIII beta protein was “effective correction”. Also, the “correction … (pCAMKII/CAMKII ratio)” value with CAMKII protein is reported as “return the phosphorylation level to the value observed in the control animals”.
As to `Oc1ccc(-c2cnc3[nH]cc(-c4ccc(O)c(F)c4)c3c2)cc1` [I′h, 3-(3-fluoro-4-hydroxyphenyl)-5-(4-hydroxyphenyl)-1H-pyrrolo[2,3-b]pyridine], the pIC50 against DYRK1A protein is 8.03.
For the molecule `Oc1ccc(O)c(-c2cnc3[nH]cc(-c4ccc(O)c(O)c4)c3c2)c1` [I′e, 3-(3,4-dihydroxyphenyl)-5-(2,5-dihydroxyphenyl)-1H-pyrrolo[2,3-b]pyridine], on DYRK1A protein, the negative logarithm of the IC50 (pIC50) is 7.41.
